Test results from patent publication US20030224403A1 (priority 2002, published 2003).
Several values for one entry are separate records, joined by “and”; a condition that tells them apart may be missing. Equal entries are not always repeated. Entries after “also recorded” stand apart in the source; their conditions may differ. Residues, ends and D or L forms follow the SMILES beside them. *: point of attachment. Cbz = O=C(OCc1ccccc1)*; CH2F = FC*

Legend:
RAW 264.7 cells [1] = format: cell-based, mouse
B. anthracis spores [2] = conditions: in vivo
B. anthracis spores [3] = conditions: in vivo; remark: listed apart in the source
RAW 264.7 cells [4] = format: cell-based, mouse; remark: listed apart in the source
[5] = system: human peripheral blood monocytes / PBMCs; format: cell-based
RAW 264.7 cells [6] = format: cell-based, mouse; conditions: 4 h
RAW 264.7 cells [7] = format: cell-based, mouse; remark: listed apart in the source
[8] = system: RAW 264.7 cells infected with anthrax (Sterne) spores; format: cell-based, mouse
anthrax (Sterne) spores = system: anthrax (Sterne) spores; set-up: species or system B. anthracis
[9] = system: human PBMCs infected with anthrax (Sterne) spores; format: cell-based
RAW 264.7 cells [10] = format: cell-based, mouse; remark: listed apart in the source
[11] = system: Fas expression in RAW 264.7 cells; format: cell-based, mouse
RAW 264.7 cells [12] = format: cell-based, mouse; remark: listed apart in the source
[13] = mouse, in vivo, ip; cited from earlier work

## CC[C@H](C)[C@H](NC(=O)OCc1ccccc1)C(=O)N[C@@H](CCC(=O)OC)C(=O)N[C@H](C(=O)N[C@@H](CC(=O)OC)C(=O)CF)[C@@H](C)O [inhibitor of caspase 8, Z-IETD-FMK] (Cbz-IE(OMe)TD(OMe)-CH2F)
RAW 264.7 cells [1]
  protection of cells against LeTx (membrane permeability staining): most active

## COC(=O)CC[C@H](NC(=O)[C@H](CC(=O)OC)NC(=O)OCc1ccccc1)C(=O)N[C@H](C(=O)N[C@@H](CC(=O)OC)C(=O)CF)C(C)C [inhibitor of caspase 3, Z-DEVD-FMK]
RAW 264.7 cells [1]
  protection of cells against LeTx (membrane permeability staining): different degree of protection

## COC(=O)C[C@H](NC(=O)[C@H](C)NC(=O)[C@@H](NC(=O)OCc1ccccc1)C(C)C)C(=O)CF [Z-VAD-fmk, benzyloxycarbonyl-Val-Ala-Asp-fluoromethylketone] (Cbz-Val-Ala-Asp(OMe)-CH2F)
B. anthracis spores [2]
  survival of mice: dead by 11 days
B. anthracis spores [2]; ip
  mice alive by day 15: 20%
  mice survived by day 15: 20% and 10%

## O=C(O)c1cn(C2CC2)c2cc(N3CCNCC3)c(F)cc2c1=O [ciprofloxacin]
B. anthracis spores [2]
  mice alive after 11 days: 100%
  mice survived at least 14 days: 100%
  protection of mice (FIG. 29): complete protection
  survival (FIG. 29): 10%
B. anthracis spores [3]
  mice alive after 15 days: approximately 50%
  survival of mice by day 12: 50%

## trypsin
B. anthracis spores [2]
  survival of mice: dead by 11 days

## C[S+]([O-])c1ccc(-c2nc(-c3ccncc3)c(-c3ccc(F)cc3)[nH]2)cc1 (stereo not drawn) [SB 203580]
RAW 264.7 cells [4]
  antitoxin effect (cell survival, MTT): not able to decrease the effect of LeTx; also recorded: do not increase cell survival; also recorded: none of these inhibitors increased cell survival

## CCN(CC)CCCC(C)Nc1ccnc2cc(Cl)ccc12 (stereo not drawn) [chloroquine]
B. anthracis spores [2]
  survival of mice: dead by 11 days

## CC[C@H](C)[C@H](NC(=O)[C@H](CCC(=O)OC)NC(=O)[C@@H](NC(=O)OCc1ccccc1)C(C)C)C(=O)N[C@@H](CC(=O)OC)C(=O)CF [inhibitor of caspase 6, Z-VEID-FMK] (Cbz-VE(OMe)ID(OMe)-CH2F)
RAW 264.7 cells [1]
  protection of cells against LeTx (membrane permeability staining): most active

## CN[C@@H]1C[C@H]2O[C@@](C)([C@@H]1OC)n1c3ccccc3c3c4c(c5c6ccccc6n2c5c31)C(=O)NC4 [staurosporine]
[5]
  fluorescence pattern (YO-PRO-1) of human monocytes: fluorescence pattern typical of apoptotic cells
RAW 264.7 cells [6]
  mitochondrial transmembrane potential (JC-1 staining): JC-1 staining changes similar to LeTx

## COc1cccc(-c2cc(=O)c3ccccc3o2)c1N [PD 98059]
RAW 264.7 cells [4]
  antitoxin effect (cell survival, MTT): did not display an antitoxin effect; also recorded: do not increase cell survival; also recorded: none of these inhibitors increased cell survival

## IL-6: cytokine
RAW 264.7 cells [7]
  cell viability relative to cells treated with toxin only (MTT): increased cell viability

## COC(=O)CC[C@H](NC(=O)[C@H](Cc1c[nH]c2ccccc12)NC(=O)OCc1ccccc1)C(=O)N[C@@H](Cc1cnc[nH]1)C(=O)N[C@@H](CC(=O)OC)C(=O)CF [inhibitor of caspase 1, Z-WEHD-FMK] (Cbz-WE(OMe)HD(OMe)-CH2F)
RAW 264.7 cells [1]
  protection of cells against LeTx (membrane permeability staining): different degree of protection

## CC(C)C[C@H](NC(=O)[C@@H](O)[C@H](N)Cc1ccccc1)C(=O)O [bestatin]
B. anthracis spores [2]
  survival of mice: dead by 11 days
[8]
  bactericidal activity of Raw 264.7 cells: restores a bactericidal activity
Anthrax (Sterne) spores
  intrinsic antibiotic activity: undetectable
B. anthracis spores [3]
  mice dead by day 9: more than 30%
[9]
  killing (bactericidal) activity of human PBMCs: increased in a concentration dependent manner; also recorded: restores a bactericidal activity

## Z-YVAD [inhibitor of caspase 4]
RAW 264.7 cells [1]
  protection of cells against LeTx (membrane permeability staining): most active

## COc1ccc(CCN(C)CCCC(C#N)(c2ccc(OC)c(OC)c2)C(C)C)cc1OC (stereo not drawn) [verapamil]
B. anthracis spores [2]
  survival of mice: dead by 11 days

## COC(=O)C[C@H](NC(=O)[C@H](C)NC(=O)[C@@H](NC(=O)[C@H](CC(=O)OC)NC(=O)[C@@H](NC(=O)OCc1ccccc1)C(C)C)C(C)C)C(=O)CF [inhibitor of caspase 2, Z-VDVAD-FMK] (Cbz-VD(OMe)VAD(OMe)-CH2F)
RAW 264.7 cells [1]
  protection of cells against LeTx (membrane permeability staining): different degree of protection

## CO/C1=C\C(C)=C\[C@@H](C)[C@@H](O)[C@@H](C)C/C(C)=C/C=C/[C@H](OC)[C@@H]([C@@H](C)[C@@H](O)[C@H](C)[C@@]2(O)C[C@@H](O)[C@H](C)[C@@H](C(C)C)O2)OC1=O [bafilomycin A1]
B. anthracis spores [2]
  survival of mice: dead by 11 days

## COC(=O)CC[C@H](NC(=O)[C@H](CC(C)C)NC(=O)OCc1ccccc1)C(=O)N[C@@H](Cc1cnc[nH]1)C(=O)N[C@@H](CC(=O)OC)C(=O)CF [inhibitor of caspase-9, Z-LEHD-FMK] (Cbz-LE(OMe)HD(OMe)-CH2F)
RAW 264.7 cells [1]
  protection of cells against LeTx (membrane permeability staining): unable to protect

## TNF-α
RAW 264.7 cells [10]
  effect of murine cytokine on cell lysis by LeTx: greatly increased cell lysis
[11]
  Fas expression after stimulation with cytokine: greatly increased

## NC[C@@H]1O[C@H](O[C@H]2[C@@H](O)[C@H](O[C@@H]3[C@@H](O)[C@H](N)C[C@H](N)[C@H]3O[C@H]3O[C@H](CN)[C@@H](O)[C@H](O)[C@H]3N)O[C@@H]2CO)[C@H](N)[C@@H](O)[C@@H]1O [neomycin]
B. anthracis spores [2]
  mice alive after 11 days: 100%
B. anthracis spores [3]
  survival of mice after 10 days: less than 20%

## GM-CSF: recombinant murine granulocyte-macrophage colony stimulating factor
RAW 264.7 cells [10]
  effect of murine cytokine on cell lysis by LeTx: increased cell survival
[11]
  Fas expression after stimulation with cytokine: greatly increased
RAW 264.7 cells [12]
  overall cell survival and relative number of apoptotic cells in presence of LeTx: substantially increased
  prevention of LeTx-induced apoptosis: incapable of preventing apoptosis completely
  protection of Raw 264.7 cells from LeTx: partially protected
B. anthracis spores [2]; ip
  mice survived after 24 days: 20%
[13]
  toxicity in mice: No toxicity

B1: IL-12: murine interleukin-12 (protein, UniProt P29459 23-219; P29460 23-328, looked up)
Interleukin-12 subunit alpha: RNLPVATPDPGMFPCLHHSQNLLRAVSNMLQKARQTLEFYPCTSEEIDHEDITKDKTSTVEACLPLELTKNESCLNSRETSFITNGSCLASRKTSFMMALCLSSIYEDLKMYQVEFKTMNAKLLMDPKRQIFLDQNMLAVIDELMQALNFNSETVPQKSSLEEPDFYKTKIKLCILLHAFRIRAVTIDRVMSYLNAS
Interleukin-12 subunit beta: IWELKKDVYVVELDWYPDAPGEMVVLTCDTPEEDGITWTLDQSSEVLGSGKTLTIQVKEFGDAGQYTCHKGGEVLSHSLLLLHKKEDGIWSTDILKDQKEPKNKTFLRCEAKNYSGRFTCWWLTTISTDLTFSVKSSRGSSDPQGVTCGAATLSAERVRGDNKEYEYSVECQEDSACPAAEESLPIEVMVDAVHKLKYENYTSSFFIRDIIKPDPPKNLQLKPLKNSRQVEVSWEYPDTWSTPHSYFSLTFCVQVQGKSKREKKDRVFTDKTSATVICRKNASISVRAQDRYYSSSWSEWASVPCS
RAW 264.7 cells [10]
  effect of murine cytokine on cell lysis by LeTx: without effect

B2: IL-4: cytokine (protein, UniProt P05112 25-153, looked up)
Interleukin-4: HKCDITLQEIIKTLNSLTEQKTLCTELTVTDIFAASKNTTEKETFCRAATVLRQFYSHHEKDTRCLGATAQQFHRHKQLIRFLKRLDRNLWGLAGLNSCPVKEANQSTLENFLERLKTIMREKYSKCSS
RAW 264.7 cells [7]
  cell viability relative to cells treated with toxin only (MTT): increased cell viability

B3: IFN-γ: recombinant mouse interferon-gamma (protein, UniProt P01579 24-161, looked up)
Interferon gamma: QDPYVKEAENLKKYFNAGHSDVADNGTLFLGILKNWKEESDRKIMQSQIVSFYFKLFKNFKDDQSIQKSVETIKEDMNVKFFNSNKKKRDDFEKLTNYSVTDLNVQRKAIHELIQVMAELSPAAKTGKRKRSQMLFRG
RAW 264.7 cells [10]
  effect of murine cytokine on cell lysis by LeTx: increased cell susceptibility to lysis
[11]
  Fas expression after stimulation with cytokine: greatly increased
